Data reported in patent US8940310B2, “Methods of treatment using TLR7 and/or TLR9 inhibitors” (Dynavax Technologies Corporation, priority 2010, dated 2015).
“Also recorded” adds a separate entry of the source.

Key:
TLR9 = molecular target: T1, TLR9 (Mus musculus, UniProt Q9EQU3); experiment: CpG-C ISS-induced serum cytokines in 129 mice; assay type: in vivo; details: CpG-C ISS with IRS, serum at 6 hr, listed as IRS
T1 construct: endogenous in cells; host or cells: 129 mice, whole animal (serum IFN-alpha and IL-6)
T1 sequence (Q9EQU3 26-1032): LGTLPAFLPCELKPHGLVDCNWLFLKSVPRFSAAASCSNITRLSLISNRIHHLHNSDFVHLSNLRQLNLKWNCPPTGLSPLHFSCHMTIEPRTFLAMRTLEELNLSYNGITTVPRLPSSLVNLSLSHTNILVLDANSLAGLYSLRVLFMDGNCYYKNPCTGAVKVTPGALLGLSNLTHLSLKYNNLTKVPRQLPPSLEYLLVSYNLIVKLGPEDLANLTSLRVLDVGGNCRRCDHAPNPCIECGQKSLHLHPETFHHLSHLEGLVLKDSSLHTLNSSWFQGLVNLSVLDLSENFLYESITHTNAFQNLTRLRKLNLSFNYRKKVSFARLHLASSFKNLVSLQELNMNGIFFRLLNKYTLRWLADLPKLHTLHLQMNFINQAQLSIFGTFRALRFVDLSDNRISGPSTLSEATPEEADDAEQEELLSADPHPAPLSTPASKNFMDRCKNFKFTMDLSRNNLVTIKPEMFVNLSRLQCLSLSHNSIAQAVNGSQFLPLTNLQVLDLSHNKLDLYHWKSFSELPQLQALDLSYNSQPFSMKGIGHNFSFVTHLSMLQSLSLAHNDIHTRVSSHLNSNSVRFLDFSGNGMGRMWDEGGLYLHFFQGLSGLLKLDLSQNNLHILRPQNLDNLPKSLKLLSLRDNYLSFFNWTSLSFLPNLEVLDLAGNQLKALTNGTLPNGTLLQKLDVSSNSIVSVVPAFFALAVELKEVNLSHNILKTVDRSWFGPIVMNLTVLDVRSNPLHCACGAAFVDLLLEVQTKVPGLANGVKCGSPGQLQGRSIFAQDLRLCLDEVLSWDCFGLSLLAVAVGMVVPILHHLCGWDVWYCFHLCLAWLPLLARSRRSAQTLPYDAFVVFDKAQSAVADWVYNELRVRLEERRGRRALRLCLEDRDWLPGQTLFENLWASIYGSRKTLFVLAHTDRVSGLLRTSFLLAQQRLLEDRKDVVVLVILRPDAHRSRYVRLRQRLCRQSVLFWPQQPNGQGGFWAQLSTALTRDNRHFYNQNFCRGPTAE
Protocol: 129 mice were either left untreated or treated with CpG-C ISS (50 μg/mice) alone or with IRS (50 μg/mice) and serum was collected 6 hr later. IFN-α and IL-6 was evaluated by ELISA. n=6 mice per group±standard error of the mean.

5′-TGCTCCTGGAGGGGTTGT-3′ (DNA, backbone not given here) [SEQ ID NO:42]
CpG-ISS-induced activation, serum IFN-α and IL-6 (TLR9): prevented CpG-ISS-induced activation; also recorded: significantly reduced CpG-C ISS-mediated induction of cytokines
GC-induced neutrophil expansion (PDC; lupus-prone mice, blood): reduction of the GC-induced neutrophil expansion
sensitivity to GC of PDC, cDC and B cells (PDC; lupus-prone mice, spleen and blood): enhanced the sensitivity to GC of PDC, cDC and B cells
cell death without GC (PDC; mouse, in vivo): did not induce cell death without GC
